Key:
[1] = test system: S. Enteritidis ATCC 13076; assay: CLSM analysis, biofilm prevention; type: cell-based, Salmonella enterica Enteritidis; conditions: 24 h exposure; for Thickness (µm) subCBM80: substance at subinhibitory concentration, mean ± SD
Protocol: Biofilm prevention and removal analyses were performed using previously determined minimum inhibitory and subinhibitory concentrations for metabolic activity (MICBM80, subCBM80; MICMPB80, subCMPB80) of NAC, RLs, and UA specific for each tested strain. Selected concentrations were used to evaluate the inhibition of biofilm formation (biofilm prevention) and the reduction in previously formed biofilms (biofilm removal) for the same set of microorganisms, with the exception of S. Infantis, which was excluded from the analysis due to its inability to form biofilm in the selected microtiter plate. Biofilm prevention and removal were observed using CLSM with specific staining to distinguish between live and membrane-compromised cells. Images were analyzed to evaluate (i). the total volume of the biomass, (ii). ratios of live and membrane-compromised cells, and (iii). to calculate biofilm volume reduction for individual organisms after the respective treatment types. The total biofilm volume was normalized by the area of the well and expressed as an average biofilm thickness. Complete data are provided in Supplementary Materials (Tables S1–S8).
For both inhibition and reduction of biofilms, overnight cultures from BHI were diluted in TSB + 1% Glc to reach an absorbance of 0.08 to 0.1 at 625 nm. The inoculum (150 µL) was transferred into wells of the 96-well flat-bottomed Ibidiμ-Plate (Ibidi, Gräfelfing, Germany) and mixed with 150 µL of each of the three tested substances in technical quadruplicates, followed by incubation at 37 °C for 24 h. Simultaneously, the prepared bacterial suspensions were inoculated to an additional microtiter plate (200 µL) and allowed to form biofilm overnight (18 h at 37 °C). After the incubation, the content of the well was drained off, and 200 µL of each of the three tested substances was added to the plate, which was then incubated for an additional 20 h. […]
All collected images were statistically evaluated to quantify biovolume utilizing the surface estimation procedure described in Parker et al.. […]

E. coli 693/17 = assay: MIC for further growth of biofilm cells, preformed biofilm (A625nm); type: cell-based, Escherichia coli; conditions: for MICBC80: ≥80% inhibition, 18 h preformed biofilm, 20 h with substance
Protocol: (§1) Ten concentrations of NAC, RLs, and UA were tested to determine the minimum inhibitory concentration for planktonic growth, and subsequently, the six highest concentrations were applied on preformed biofilms to evaluate the biofilm eradication ability of the compounds. MIC was defined as the lowest substance concentration able to inhibit at least 80% of microbial growth (MICPC80 for planktonic cells, MICBC80 for further growth of biofilm cells), inhibit 80% of metabolic activity (MICBM80 for biofilm metabolic activity, MICMPB80 for metabolic activity of preformed biofilm), prevent biofilm formation by at least 80% (MICBF80 for biofilm formation), or reduce a preformed biofilm by at least 80% (MICBR80 for biofilm reduction). The results of MICs are summarized in Table 1 (planktonic cells) and Table 2 (biofilm-associated cells).
(§2) The determination of MICs was performed according to Chlumsky et al.. Briefly, 96-well flat-bottomed microtiter plates were inoculated with 75 µL (for biofilm formation) or 100 µL (for preformed biofilm) of bacterial suspension (A625nm 0.08 to 0.1) in technical triplicates and were then carefully mixed with the dilution series of the test substances (24 h cultivation at 25 °C for S. Infantis, 37 °C for other strains) or were directly cultivated to preform biofilms (18 h). For a positive control of bacterial growth, the inoculum was mixed with a pure sterile medium. Furthermore, the sterile medium was included in the plate as a marker of potential microbial contamination. To evaluate planktonic cells growth (MICPC80) and further growth of biofilm cells (MICBC80), the optical density of the content of the microtiter plates was measured spectrophotometrically at 625 nm before and after 24 h (for biofilm formation) of cultivation or before and after additional 20 h incubation with the tested compound (for preformed biofilm). The difference of A625nm was considered as a measure of the ability of cells to grow in the presence of the tested substances. To evaluate the inhibition of biofilm formation (MICBF80) and reduction in preformed biofilms (MICBR80), biomass was quantified using crystal violet staining, and its metabolic activity (MICBM80 and MICMPB80) was estimated by using the MTT (thiazyl tetrazolium bromide, Sigma-Aldrich, USA) reduction assay, both measured spectrophotometrically at 595 nm.
(§3) All inhibitions were calculated using the formula of Chlumsky et al. below (Equation (1)):(1) A625(595)nm inhibition (%)=A625(595)nm (control) – A625(595)nm(natural substance)/A625(595)nm (control)× 100 where A625(595)nm (control) is the absorbance of bacterial suspension/biofilm itself, and A625(595)nm(natural substance) is the absorbance of the bacterial suspension/biofilm with the added natural substance (NAC, RLs, and UA).
(§4) When the minimum inhibitory concentration could not be determined, the MIC was established as >the highest tested concentration for NAC, RLs, and UA.

E. coli 683/17 = assay: as above; type: cell-based, Escherichia coli; conditions: for MICBC80: ≥80% inhibition, 18 h preformed biofilm, 20 h with substance
Protocol: as §1, §2, §3, §4

[2] = test system: S. Enteritidis ATCC 13076; assay: MIC for metabolic activity of preformed biofilm (MTT reduction assay); type: cell-based, Salmonella enterica Enteritidis; conditions: for MICMPB80: ≥80% inhibition, 20 h with substance
Protocol: as §1
The determination of MICs was performed according to Chlumsky et al.. […] To evaluate planktonic cells growth (MICPC80) and further growth of biofilm cells (MICBC80), the optical density of the content of the microtiter plates was measured spectrophotometrically at 625 nm before and after 24 h (for biofilm formation) of cultivation or before and after additional 20 h incubation with the tested compound (for preformed biofilm). […] To evaluate the inhibition of biofilm formation (MICBF80) and reduction in preformed biofilms (MICBR80), biomass was quantified using crystal violet staining, and its metabolic activity (MICBM80 and MICMPB80) was estimated by using the MTT (thiazyl tetrazolium bromide, Sigma-Aldrich, USA) reduction assay, both measured spectrophotometrically at 595 nm.
as §3, with “UA). […]” for “UA).”

[3] = test system: Haemophilus influenza, Pseudomonas aeruginosa, and Streptococcus pneumoniae; design: method as in PMID 29234086, PMID 31022884, PMID 27492531; conditions: clinical pathogens; cited from earlier work

Compound	Thickness (µm) subCBM80 [1]	maximal achieved inhibition (MICBC80 not reached) (E. coli 693/17; within tested concentrations)	MICBC80 (E. coli 693/17)	maximal achieved inhibition (MICBC80 not reached) (E. coli 683/17; within tested concentrations)	MICBC80 (E. coli 683/17)	maximal achieved inhibition (MICMPB80 not reached) ([2]; within tested concentrations)	MICMPB80 [2]	Thickness (µm) MICBM80 ([1]; substance at its MICBM80, mean ± SD)	MIC against bacterial growth [3]
CC(=O)c1c(O)c(C)c(O)c2c1OC1=CC(=O)C(C(C)=O)C(=O)C12C (single isomer, unassigned; (+)) [UA, (+)-usnic acid]	77.6 ± 39.1 µm	61%	> 31.3 µg/mL	44%	> 31.3 µg/mL	53%	> 31.3 µg/mL		
CC(=O)N[C@@H](CS)C(=O)O [NAC, N-Acetyl-L-cysteine]	137 ± 69.6 µm		3130 µg/mL		6250 µg/mL		12,500 µg/mL	117 ± 41.6 µm	500 to 2500 µg/mL

Reference: paper PMC8583417, “Evaluation of the Antimicrobial Efficacy of N-Acetyl-L-Cysteine, Rhamnolipids, and Usnic Acid—Novel Approaches to Fight Food-Borne Pathogens” (International Journal of Molecular Sciences, 2021)
